3 compounds from article PMC9235172, “SHTXTHHly, an extracellular secretion platform for the preparation of bioactive peptides and proteins in Escherichia coli” (Microbial Cell Factories, 2022) can be followed below.

Residues, ends and D or L forms follow the SMILES beside them.

The test system of assay [1] is E. coli 25922. The settings on record: E. coli 25922 in MHB, 37 °C, 18 h, OD600, triplicate. As for the experimental part:
Fig. 4 Bioactivities determination of the produced AMPs. Different concentrations (0–4000 nM) of cCeA and rCeA (A), or cLL37 and rLL37 (B), were incubated with E. coli 25,922 at 37 °C for 18 h, then the OD600 values were detected. Different concentrations (0–64 μM) of cA12 and rA12 (C) were incubated with U87 MG cells for 8 h, and the number of live cells was measured with the CCK-8 reagent.
Overnight cultures of E. coli 25922 were diluted with fresh Mueller–Hinton Broth (MHB) to an optical density at 600 nm (OD600) at 0.1 and further diluted at 1:100 with fresh MHB. Then 100 μL bacterial suspension was added in triplicate to the 96-well plate. The commercial (APeptides, China) and bio-produced Cecropin A or LL37 were serially diluted with MHB medium and added into the 96-well plate to final concentrations of 2 to 2000 nM. The plate was incubated at 37 °C for 18 h, and the OD600 values were measured with Synergy LX multi-mode reader (BioTek, USA). Broth with bacterial inoculum without AMP and broth alone were used as control groups in which the relative biomass was set as 1 and 0, respectively.

Assay [2] deals with Mo7e cells. Briefly: Mo7e cell proliferation, CCK-8. Format: cell-based. The settings on record: 1 pM-100 nM, 4 days, read-out: EC50, promotion of Mo7e cells' proliferation. As for the experimental part: Fig. 5 Bioactivities determination of RGDS, IL-15, and ADH in the SHTXTHHly fusion form. U87 MG cells were incubated with SHTRGDSTHHly/SHTRGESTHHly, mouse anti-S tag antibody, and the second antibody in sequence, then the cell staining was measured by FACS (A). U87 MG cells were incubated with SHTRGDSTHHly/SHTRGESTHHly and transferred into a fibronectin-coated plate. At different times, the attached cells were subjected to the CCK-8 reagent for quantification (B). In other experiments, cells were stained with DiO dye (green) and observed with a fluorescence microscope (C). Mo7e cells were incubated with different concentrations (1 pM-100 nM) of IL-15 and SHTIL15THHly for 4 days, and the cell numbers were measured with a CCK-8 reagent (D). The activities of ADH and SHTADHTHHly were compared using Ethyl Acetoacetate as the substrate and NADH as the co-factor (E). The activity was measured at 340 nm to monitor the decrease in the absorbance of NADH quantitatively. S: Slope. […] PBS is a blank control.
Mo7e cells were plated in a 96-well plate with a cell number of twenty thousand per well. After 4 h incubation, serially diluted IL-15 and SHTIL15THHly were added. After 4 days of incubation, the proliferation of cells was measured using the CCK-8 reagent.

On to `CC[C@H](C)[C@H](NC(=O)CNC(=O)[C@H](CC(=O)O)NC(=O)[C@H](CCCNC(=N)N)NC(=O)[C@@H](NC(=O)[C@H](CC(N)=O)NC(=O)[C@H](CCC(N)=O)NC(=O)CNC(=O)[C@@H](NC(=O)[C@H](CCCCN)NC(=O)[C@H](CCC(=O)O)NC(=O)[C@@H](NC(=O)[C@H](CCCCN)NC(=O)[C@H](CCCCN)NC(=O)[C@H](Cc1ccccc1)NC(=O)[C@H](CC(C)C)NC(=O)[C@H](CCCCN)NC(=O)[C@H](Cc1c[nH]c2ccccc12)NC(=O)[C@@H](N)CCCCN)[C@@H](C)CC)C(C)C)[C@@H](C)CC)C(=O)N[C@H](C(=O)N[C@@H](CCCCN)C(=O)N[C@@H](C)C(=O)NCC(=O)N1CCC[C@H]1C(=O)N[C@@H](C)C(=O)N[C@H](C(=O)N[C@@H](C)C(=O)N[C@H](C(=O)N[C@H](C(=O)NCC(=O)N[C@@H](CCC(N)=O)C(=O)N[C@@H](C)C(=O)N[C@H](C(=O)N[C@@H](CCC(N)=O)C(=O)N[C@H](C(=O)N[C@@H](C)C(=O)N[C@@H](CCCCN)C(=O)O)[C@@H](C)CC)[C@@H](C)O)C(C)C)C(C)C)C(C)C)[C@@H](C)CC` [cCeA, Cecropin A] (H-KWKLFKKIEKVGQNIRDGIIKAGPAVAVVGQATQIAK-OH), for which, in assay [1], the “minimum inhibitory concentration (MIC)” value came out at 0.85 µM.

Turning to `CC[C@H](C)[C@H](NC(=O)[C@H](CCCCN)NC(=O)[C@H](CCC(=O)O)NC(=O)[C@H](CCCCN)NC(=O)[C@H](CO)NC(=O)[C@H](CCCCN)NC(=O)[C@H](CCCNC(=N)N)NC(=O)[C@H](Cc1ccccc1)NC(=O)[C@H](Cc1ccccc1)NC(=O)[C@H](CC(=O)O)NC(=O)CNC(=O)[C@H](CC(C)C)NC(=O)[C@@H](N)CC(C)C)C(=O)NCC(=O)N[C@@H](CCCCN)C(=O)N[C@@H](CCC(=O)O)C(=O)N[C@@H](Cc1ccccc1)C(=O)N[C@@H](CCCCN)C(=O)N[C@@H](CCCNC(=N)N)C(=O)N[C@H](C(=O)N[C@H](C(=O)N[C@@H](CCC(N)=O)C(=O)N[C@@H](CCCNC(=N)N)C(=O)N[C@H](C(=O)N[C@@H](CCCCN)C(=O)N[C@@H](CC(=O)O)C(=O)N[C@@H](Cc1ccccc1)C(=O)N[C@@H](CC(C)C)C(=O)N[C@@H](CCCNC(=N)N)C(=O)N[C@@H](CC(N)=O)C(=O)N[C@@H](CC(C)C)C(=O)N[C@H](C(=O)N1CCC[C@H]1C(=O)N[C@@H](CCCNC(=N)N)C(=O)N[C@H](C(=O)N[C@@H](CCC(=O)O)C(=O)N[C@@H](CO)C(=O)O)[C@@H](C)O)C(C)C)[C@@H](C)CC)C(C)C)[C@@H](C)CC` [cL3, LL37], the “minimum inhibitory concentration (MIC)” value in assay [1] worked out at 1.87 µM.

In the case of IL-15: control monomeric IL-15, the EC50 in assay [2] worked out at 0.294 nM.
